Measurements: ChEMBL document CHEMBL1201862, “PubChem BioAssay data set” (2004)
“And” between values parts separate entries of the source, which are not always exact repeats. Identical values can stand only once.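 Step 1: Grow cells in 96-well plates. Step 2: Expose to compound for 48 hours at 5 concentrations. Step 3: Interpolate endpoints linearly; if unreached, use highest concentration. GI50 marks 50% less growth.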 The source made the active and inactive calls. Rule as the data show it: active = GI50 up to about 1.1 µM and inactive = higher.

Experiments:
Experiment in all cases: NCI tumour cell line growth inhibition, 48 h
CCRF-CEM = test system: CCRF-CEM
HCT-116 = test system: HCT-116
HCT-15 = test system: HCT-15
HOP-62 = test system: HOP-62
Hs-578T = test system: Hs-578T
K562 = test system: K562
MDA-MB-231 = test system: MDA-MB-231
MDA-N = test system: MDA-N
Malme-3M = test system: Malme-3M
NCI-H23 = test system: NCI-H23
OVCAR-5 = test system: OVCAR-5
PC-3 = test system: PC-3
RPMI-8226 = test system: RPMI-8226
SF-268 = test system: SF-268
SK-MEL-28 = test system: SK-MEL-28
SK-MEL-2 = test system: SK-MEL-2
SN12C = test system: SN12C
SR = test system: SR
SW-620 = test system: SW-620
T47D = test system: T47D

Row | SMILES | GI50 (CCRF-CEM) | GI50 (HCT-116) | GI50 (HCT-15) [µM] | GI50 (HOP-62) | GI50 (Hs-578T) | GI50 (K562) | GI50 (MDA-MB-231) | GI50 (MDA-N) | GI50 (Malme-3M) | GI50 (NCI-H23) | GI50 (OVCAR-5) | GI50 (PC-3) | GI50 (RPMI-8226) | GI50 (SF-268) | GI50 (SK-MEL-28) | GI50 (SK-MEL-2) | GI50 (SN12C) | GI50 (SR) | GI50 (SW-620) | GI50 (T47D)
1 | Cc1c(NC(=O)Nc2c(Cl)cccc2Cl)c(=O)n(-c2ccccc2)n1C | 46.7 µM (inactive) | > 100 µM (inactive) | > 100 | > 100 µM (inactive) | > 100 µM (inactive) | > 100 µM (inactive) | > 100 µM (inactive) | > 100 µM (inactive) | > 100 µM (inactive) | > 100 µM (inactive) | > 100 µM (inactive) | > 100 µM (inactive) | > 100 µM (inactive) | > 100 µM (inactive) | > 100 µM (inactive) | > 100 µM (inactive) | > 100 µM (inactive) | > 100 µM (inactive) | > 100 µM (inactive) | > 100 µM (inactive)
2 | O=C(O)c1ccccc1CC1Cc2ccc3c(c2C1=O)CCC3 (stereo not given) | > 100 µM (inactive) | > 100 µM (inactive) | > 100 | > 100 µM (inactive) | > 100 µM (inactive) | > 100 µM (inactive) | > 100 µM (inactive) | > 100 µM (inactive) | > 100 µM (inactive) | > 100 µM (inactive) | > 100 µM (inactive) | > 100 µM (inactive) | > 100 µM (inactive) | > 100 µM (inactive) | > 100 µM (inactive) | > 100 µM (inactive) | > 100 µM (inactive) | > 100 µM (inactive) | > 100 µM (inactive) | > 100 µM (inactive)
3 | CC(=O)OC1CC2C(=O)CC1(C)C2(C)C (stereo not given) | > 100 µM (inactive) | > 100 µM (inactive) | > 100 | > 100 µM (inactive) | > 100 µM (inactive) | > 100 µM (inactive) and > 80.4 µM (inactive) | > 100 µM (inactive) | > 100 µM (inactive) | > 100 µM (inactive) | > 100 µM (inactive) | > 100 µM (inactive) | > 100 µM (inactive) | > 100 µM (inactive) | > 100 µM (inactive) | > 100 µM (inactive) | > 100 µM (inactive) | > 100 µM (inactive) | > 100 µM (inactive) | > 83.8 µM (inactive) | > 100 µM (inactive)
4 | CCOC(=O)C(=[N+]=[N-])C(=O)C[N+]12CCN(CC1)CC2 | > 100 µM (inactive) | > 100 µM (inactive) | > 100 | > 100 µM (inactive) | > 100 µM (inactive) | > 100 µM (inactive) | > 100 µM (inactive) | > 100 µM (inactive) | > 100 µM (inactive) | > 100 µM (inactive) | > 100 µM (inactive) | > 100 µM (inactive) | > 100 µM (inactive) | > 100 µM (inactive) | > 100 µM (inactive) | > 100 µM (inactive) | > 100 µM (inactive) | > 100 µM (inactive) | > 100 µM (inactive) | > 100 µM (inactive)
5 | COc1ccccc1C[C@@H]1OC2(C=CC(=O)C=C2)O[C@H]1Cc1ccccc1OC | 3.33 µM (inactive) | 1.09 µM (active) | 5.21 | 7.4 µM (inactive) | 10 µM (inactive) | 11.5 µM (inactive) | 13.8 µM (inactive) | 6 µM (inactive) | 9.71 µM (inactive) | 8.75 µM (inactive) | 8.43 µM (inactive) | 8.69 µM (inactive) | 1.71 µM (inactive) | 7.35 µM (inactive) | 8.81 µM (inactive) | 9.29 µM (inactive) | 9.64 µM (inactive) | 1.78 µM (inactive) | 1.79 µM (inactive) | 19.2 µM (inactive)
6 | COc1cc(I)c2c3c1OC1C34CCN(C)C(C2)C4=CC(I)C1(OC)OC (stereo not given) | 5.36 µM (inactive) | 23.4 µM (inactive) | 25.5 | 19.1 µM (inactive) | 53.2 µM (inactive) | 20.7 µM (inactive) | 20.1 µM (inactive) | 19.9 µM (inactive) | 20.7 µM (inactive) | 24.5 µM (inactive) | 24.2 µM (inactive) | 24.4 µM (inactive) | 19.6 µM (inactive) | 25.6 µM (inactive) | 18.2 µM (inactive) | 16.4 µM (inactive) | 16.3 µM (inactive) | 16.1 µM (inactive) | 19 µM (inactive) | 14.6 µM (inactive)
7 | COc1ccc2c(-c3ccc(O)cc3)c(Oc3ccc(Cl)cc3)c(=O)oc2c1 | 6.28 µM (inactive) | 6.46 µM (inactive) | 4.66 | 12.9 µM (inactive) | 5.62 µM (inactive) | 7.21 µM (inactive) | 5.13 µM (inactive) | 6.34 µM (inactive) | 4.76 µM (inactive) | 2.79 µM (inactive) | 4.89 µM (inactive) | 7.69 µM (inactive) | 3.99 µM (inactive) | 8.07 µM (inactive) | 7.71 µM (inactive) | 4.69 µM (inactive) | 4.6 µM (inactive) | 2.94 µM (inactive) | 5.35 µM (inactive) | 5.26 µM (inactive)
8 | CCOP(=O)(CC1OC(CO)C(O)C1O)OCC (stereo not given) | > 100 µM (inactive) | > 100 µM (inactive) | > 100 | > 100 µM (inactive) | > 100 µM (inactive) | > 100 µM (inactive) | > 100 µM (inactive) | > 100 µM (inactive) | > 100 µM (inactive) | > 46.7 µM (inactive) | > 100 µM (inactive) | > 100 µM (inactive) | > 100 µM (inactive) | > 100 µM (inactive) | > 100 µM (inactive) | > 100 µM (inactive) | > 100 µM (inactive) | > 100 µM (inactive) | > 100 µM (inactive) | > 100 µM (inactive)
9 | O=C1C(Nc2ccccc2)=CC2=NCCc3n[nH]c1c32 | 22.3 µM (inactive) | 18 µM (inactive) | 19.8 | 91.2 µM (inactive) | 42.2 µM (inactive) | 38.5 µM (inactive) | 34.8 µM (inactive) | 16.3 µM (inactive) | 14.4 µM (inactive) | 33.9 µM (inactive) | > 100 µM (inactive) | 33.1 µM (inactive) | 26.4 µM (inactive) | 65.2 µM (inactive) | 68.1 µM (inactive) | 61.7 µM (inactive) | 34.8 µM (inactive) | 25.2 µM (inactive) | 34.4 µM (inactive) | 34.4 µM (inactive)
10 | O=C(CC(=O)Nc1ccccc1Cl)NNC(c1cc(/N=N/c2ccc(Br)cc2)ccc1O)P(O)O (stereo not given) | 0.451 µM (active) | 0.311 µM (active) | 0.594 | 3.88 µM (inactive) | > 10 µM (inactive) | 2.4 µM (inactive) | 3.06 µM (inactive) | 3.2 µM (inactive) | 3.6 µM (inactive) | 2.53 µM (inactive) | 3.61 µM (inactive) | 0.521 µM (active) | 2.84 µM (inactive) | 0.679 µM (active) | 7.43 µM (inactive) | > 10 µM (inactive) | 1.6 µM (inactive) | 0.766 µM (active) | 0.647 µM (active) | 2.12 µM (inactive)
